Results on 1 compound are retold here after ChEMBL document CHEMBL5512655, “Discovery of indolylacryloyl-derived oxacins as novel potential broad-spectrum antibacterial candidates” (Eur J Med Chem, 2024).

Values after ≈ are worked out from the molar mass of the structure shown. Active and inactive are the calls of the source. No cut-off for these calls is given here.

Data set [1] relates to Calf thymus DNA. Description: Binding affinity to calf thymus DNA by acridine orange staining based competitive binding assay. To be noted: Bos taurus. It counts as nucleic-acid assay.
Data set [2] can be described thus: Hemolytic activity in human red blood cells assessed as hemolysis rate at 64 ug/ml relative to control. It counts as toxicity, cell-based, Erythrocyte. To be noted: red blood cells (erythrocytes), at 64 µg/mL, read-out: Activity.
Data set [3] has as its system Escherichia coli. Description: Antibacterial activity against Escherichia coli assessed as inhibition of bacterial growth measured after 24 hrs incubation. In kind it is functional.
In data set [4] the test system is Calf thymus DNA. Description: Binding affinity to calf thymus DNA assessed as DNA intercalation with drug by […] assay. In kind it is nucleic-acid assay. The conditions noted are these: Bos taurus.
In data set [5] the test system is Escherichia coli. Description: Anti-biofilm effect in Escherichia coli assessed as biofilm destruction by measuring reduced biofilm content at MIC. It counts as functional.
Data set [6] has as its system Staphylococcus aureus. Put plainly: Antibacterial activity against Staphylococcus aureus ATCC 29213 assessed as inhibition of bacterial growth measured after 24 hrs incubation. It counts as functional.
The test system of data set [7] is Klebsiella pneumoniae. Put plainly: Potency index, ratio of norfloxacin MIC to test compound MIC for antibacterial activity against Klebsiella pneumonia assessed as inhibition of bacterial growth measured after 24 hrs incubation. It counts as functional.
In data set [8] the test system is Staphylococcus aureus. Put plainly: Antibacterial activity against methicillin-resistant Staphylococcus aureus N315 assessed as reduction in bacterial burden at 2 to 4 times of MIC measured upto 7 hrs by time-dependent kinetics assay. It counts as functional, organism-based.
The test system of data set [9] is Staphylococcus aureus. Put plainly: Potency index, ratio of norfloxacin MIC to test compound MIC for antibacterial activity against Staphylococcus aureus assessed as inhibition of bacterial growth measured after 24 hrs incubation. In kind it is functional.
The subject of data set [10] is Staphylococcus aureus. Put plainly: Antibacterial activity against methicillin-resistant Staphylococcus aureus N315 assessed as resistance development measured after 18 generations. In kind it is functional, organism-based.
The test system of data set [11] is Escherichia coli. Put plainly: Induction of ROS production in Escherichia coli assessed as fluorescence intensity by DCFH-DA (dichlorofluorescin diacetate) probe based assay. In kind it is functional, organism-based.
For data set [12], the system named is Cell membrane. Put plainly: Induction of cell membrane damage in methicillin-resistant Staphylococcus aureus N315 assessed as increase in density of red fluorescence at 4 times of MIC by Calcein-AM/PI dual staining based fluorescence microscopy. In kind it is cell membranes.
In data set [13] the test system is Staphylococcus aureus. Description: Potency index, ratio of norfloxacin MIC to test compound MIC for antibacterial activity against Staphylococcus aureus ATCC 29213 assessed as inhibition of bacterial growth measured after 24 hrs incubation. In kind it is functional.
Data set [14] concerns Enterococcus faecalis. Description: Antibacterial activity against Enterococcus faecalis assessed as inhibition of bacterial growth measured after 24 hrs incubation. In kind it is functional.

As for `CCOC(=O)Cn1cc(/C=C(\C#N)C(=O)N2CCN(c3cc4c(cc3F)c(=O)c(C(=O)O)cn4CC)CC2)c2ccccc21`, the result in data set [1], in [4], in data set [8], in [10] and in [12] was Active. Besides, in [2], the hemolysis at 64 ug/ml was less than 5%. The MIC in [3], in data set [6] and in data set [14] was 0.25 µg/mL (≈ 0.417 µM) each time. Also, in data set [5], the “inhibition (INH)” value was determined as 82.7%. The Ratio in data set [7], in data set [9] and in data set [13] was 1 throughout. Besides, the Activity result in [11] is “Dose-Dependent Effect”.
